For 19 molecules, IC50 results are on record in BindingDB's records for doi:10.1021/bi8010362 (Kyoto University, 2008).

The structures appear in SMILES notation.

Chain of NADH-ubiquinone oxidoreductase chain 1 (P03887 whole entry): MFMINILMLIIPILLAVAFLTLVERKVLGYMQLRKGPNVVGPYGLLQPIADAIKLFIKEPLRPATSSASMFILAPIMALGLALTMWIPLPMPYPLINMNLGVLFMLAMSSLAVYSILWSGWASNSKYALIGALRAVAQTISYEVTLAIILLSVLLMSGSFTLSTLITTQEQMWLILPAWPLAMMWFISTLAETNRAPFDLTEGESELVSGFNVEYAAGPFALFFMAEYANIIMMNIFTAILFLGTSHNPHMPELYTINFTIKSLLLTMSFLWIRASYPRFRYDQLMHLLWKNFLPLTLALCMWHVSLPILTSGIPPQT

The assay addresses NADH-ubiquinone oxidoreductase chain 1 (Bos taurus, UniProt P03887). Kind of assay: Inhibition Assay. The text has this: Inhibition assay using NADH-ubiquinone oxidoreductase (complex I).
As a reminder, the IC50 is the concentration that gives 50% inhibition. A higher IC50 goes with a need for much substance. On to `O[C@H](CCCCCc1ccccc1)CN1CCN(C[C@H](O)CCCCCc2ccccc2)CC1` [Piperazine derivative, 8], for which the concentration for half-maximal inhibition (IC50) came out at 12 nM. In other words, the double-digit nanomolar range.
`O[C@H](CCCCCCCc1ccccc1)CN1CCCN(C[C@H](O)CCCCCCCc2ccccc2)CC1` [Piperazine derivative, 13] registered an IC50 of 1.7 nM.
In the case of `c1ccc(CCCCCCCN2CCN(CCCCCCCc3ccccc3)CC2)cc1` [Piperazine derivative, 18] it was 12 nM; in that of `CCCCCC(O)CN1CCN(CC(O)CCCCC)CC1` (centres undefined) [Piperazine derivative, 4], greater than 22000 nM.
In the case of `CCCCCCCCCCCCCCCCC(O)CN1CCN(CC(O)CCCC)CC1` (centres undefined) [Piperazine derivative, 7] it was 110 nM; in that of `O[C@H](CCCCCCCc1ccccc1)CN1CCN(C[C@H](O)CCCCCCCc2ccccc2)CC1` [Piperazine derivative, 10], 1.2 nM; in that of `c1ccc(CCCCCCCCCN2CCN(CCCCCCCCCc3ccccc3)CC2)cc1` [Piperazine derivative, 20], 3.6 nM.
In the case of `C[N+]1(C[C@H](O)CCCCCc2ccccc2)CCN(C[C@H](O)CCCCCc2ccccc2)CC1` [Piperazine derivative, 22] it was 1100 nM; in that of `C[N+]1(C[C@H](O)CCCCCc2ccccc2)CC[N+](C)(C[C@H](O)CCCCCc2ccccc2)CC1` (some centres undefined) [Piperazine derivative, 23], 4700 nM.
Turning to `O[C@@H](CCCCCCc1ccccc1)CN1CCN(C[C@@H](O)CCCCCCc2ccccc2)CC1` [Piperazine derivative, 12], 2.3 nM corresponded to half-maximal inhibition (IC50).
In the case of `O[C@H](CCCCCCCc1ccccc1)CN1C[C@H]2C[C@@H]1CN2C[C@H](O)CCCCCCCc1ccccc1` [Piperazine derivative, 14] it was 2.8 nM; in that of `c1ccc(CCCCCCCCN2CCN(CCCCCCCCc3ccccc3)CC2)cc1` [Piperazine derivative, 19], 2.2 nM; in that of `N#[N+]Nc1c(F)c(F)c(COCCCCC[C@@H](O)CN2CCN(C[C@H](O)CCCCCOc3ccc(I)cc3)CC2)c(F)c1F` [Piperazine derivative, 24], 1 nM.
In the case of `CCCCCCCCCCC(O)CN1CCN(CC(O)CCCCCCCCCC)CC1` (centres undefined) [Piperazine derivative, 5] it was 2.6 nM; in that of `CN(C[C@H](O)CCCCCCCc1ccccc1)[C@H]1CCCC[C@@H]1N(C)C[C@H](O)CCCCCCCc1ccccc1` [Piperazine derivative, 15], 670 nM.
For `O[C@H](CCCCCCc1ccccc1)CN1CCN(C[C@H](O)CCCCCCc2ccccc2)CC1` [Piperazine derivative, 9] the value was 1.7 nM; for `c1ccc(CCCCN2CCN(CCCCc3ccccc3)CC2)cc1` [Piperazine derivative, 21], 1300 nM.
On to `O[C@H](CCCCCCCCCc1ccccc1)CN1CCN(C[C@H](O)CCCCCCCCCc2ccccc2)CC1` [Piperazine derivative, 11], for which the IC50 came to 5.9 nM.
For `CCCCCCCCCCCCCCC(O)CN1CCN(CC(O)CCCCCC)CC1` (centres undefined) [Piperazine derivative, 6] the value was 26 nM.
